Test results published in patent publication US20190136195A1, “COMPOSITION FOR TREATING TENDONITIS AND MANUFACTURE THEREOF” (Gwo Xi Stem Cell Applied Technology Co., Ltd., priority 2016, published 2019).
Entries after “also recorded” stand apart in the source; their conditions may differ.

Legend:
Format in all cases: cell-based, Human
[1] = system: COL1 protein (collagen, COL1A1); assay: Protein expression of COL1A1 in hADSC; details: hADSC at 1×10^5 cell/ml, 2.5 μg/ml, 96 or 168 hours
Protocol: (§1) 20 ml of 1.0×10^5 or 0.2×10^5 cells/ml hADSCs in DMEM medium (10% fetal bovine serum, 1% L-glutamine, 1% non-essential amino acid (NEAA), and 1% sodium pyruvate) was placed on a 15-cm dish, mixed with 2.5 μg/ml butylidenephthalide, and then incubated at 37° C. in a 5% CO2 incubator for 96 hours. After the medium was removed and replaced with fresh medium, hADSCs was cultured under the same condition as described above until 168 hours.

COL1A1 = assay: mRNA expression of tendon healing factors in hADSC: COL1A1; details: hADSC at 1×10^5 cell/ml, 2.5 μg/ml, 96 or 168 hours
Protocol: as §1

hADSCs = assay: Cell activity (MTT cell viability) of hADSC with butylidenephthalide; details: 24 and 48 hours
Protocol: hADSCs were seeded on a 96-well plate at a density of 3×10^3 cell/100 μl, and the 96-well plate was incubated at 37° C. in a humidified 5% CO2 atmosphere. After 16 hours, butylidenephthalide of various concentrations was added to the 96-well plate and then incubated at 37° C. in a 5% CO2 incubator. After 24 and 48 hours, the cell viability was determined. In cell viability assay, 100 μl of 10% MTT reagent was added to each well and then incubated in an incubator for 2 hours. 150 μl DMSO was added and mixed for 15 minutes. The absorbance (OD) of the aqueous solution was determined at 570 nm. According to FIG. 1, butylidenephthalide would not affect the cell activity if its concentration was blow 5 μg/ml. Therefore, 2.5 μg/ml of butylidenephthalide was selected to be used in the following experiments.

SCX = assay: mRNA expression of tendon healing factors in hADSC: SCX; details: hADSC at 1×10^5 cell/ml, 2.5 μg/ml, 96 or 168 hours
Protocol: as §1

Structure (SMILES): CCCC=C1OC(=O)c2ccccc21 [butylidenephthalide, Butylidenephthalide]
- COL1A1 protein expression [1]: increased, significantly; also recorded: significant increase
- COL1A1 mRNA expression (COL1A1): increased, significantly; also recorded: significant increase
- concentration that would not affect the cell activity (MTT) (hADSCs): < 5000 ng/mL
- SCX mRNA expression (SCX): increased, significantly; also recorded: significant increase
